Results reported in patent US11746110B2, “Alkynyl (hetero) aromatic ring compounds used for inhibiting protein kinase activity” (Shenzhen TargetRx, Inc., priority 2018, dated 2023).

Legend:
[1] = molecular target: ABL (Homo sapiens (Human), UniProt P00519); test: Biochemical kinase analysis, ABL; settings: kinase inhibition assay
Method: (§1) Reagents and materials: ABL (ThermoFisher, Cat. No. PV3585), ABL^T315I(Thermo Fisher, Cat. No. PR7429B), Ret (Carna, Cat. No. 08-159-10 ug), RET^V804M, Active (Signalchem, Cat. No. R02-12GG), ATP (Sigma, Cat. No. A7699-1G), DMSO (Sigma, Cat. No. D2650), 96-well plate (Corning, Cat. No. 3365), 384-well plate (Greiner, Cat. No. 784076), buffer solution (Thermo Fisher, Cat. No. PR4876B).
(§2) Compound formulation: The test compounds were dissolved in DMSO to prepare a 20 mM stock solution. Before use, the compounds were diluted in DMSO to 0.1 mM, and diluted into 11 concentrations with a 3-fold gradient. When addition, dilutions of 4-fold final concentration were then made with buffer solution.
(§3) Kinase assay method: After preparing the buffer, the enzyme was mixed with pre-formulated and diluted compounds of different concentrations in duplicate for each concentration, and placed at room temperature for 30 minutes. The corresponding substrate and ATP were added thereto, and reacted at room temperature for 60 minutes (both a negative and a positive control were set). After the reaction, antibody was added for detection, Evnvision detection was carried out after 60 minutes incubation at room temperature, and data was collected. Data analysis and fitting were made according to XLfit5 software.

[2] = molecular target: ABL^T315I (Homo sapiens (Human), UniProt P00519, T315I); test: Biochemical kinase analysis, ABL T315I; settings: kinase inhibition assay
Method: as §1, §2, §3

[3] = tested on: Ba/F3 parental cells; test: Cell proliferation analysis, Ba/F3 parental; type: cell-based; settings: Mus musculus, BaF3, 72 h; 3 days, CellTiter-Glo, 8 ng/ml IL-3
Method: (§4) The inhibitory effect of the example compounds on Ba/F3 parental, Ba/F3 Bcr-Abl^T315I, K562, Ba/F3 KIF5B-RET, BaF3 FLT3-ITD cell activity was determined.
(§5) Materials and reagents: RPMI-1640 medium (GIBCO, Catalog No. A10491-01), fetal bovine serum (GIBCO, Catalog No. 10099141), antibiotics (Penicillin-Streptomycin), IL-3(PeproTech), promycin; cell lines: Ba/F3 parental, Ba/F3 Bcr-Abl^T315I, Ba/F3 KIF5B-RET, BaF3 FLT3-ITD, (purchased from American type culture collection, ATCC), K562 live cell detection kit CellTiter-Glo4(Promega, Catalog No. G7572), 96-well black wall transparent flat bottom cell culture plate (Corning, Catalog No. 3340).
(§6) Test method: 1. Preparation of cell plate: Ba/F3 parental, Ba/F3 Bcr-Abl^T315I K563, Ba/F3 KIFSB-RET, BaF3 FLT3-ITD cells were respectively seeded in 96-well plates, and 8 ng/ml IL-3 was added to the Ba/F3 cells, and the cell plates were placed in a carbon dioxide incubator and cultured overnight. 2. The test compounds were dissolved in DMSO, 9 compound concentrations were made with a 3.16-fold gradient dilution in triplicate. 3. Treatment of the cells with compounds: The compounds were transferred to the cell plate with a starting concentration of 10 μM. The cell plate was placed in a carbon dioxide incubator for 3 days. 4. Detection: CellTiter-Glo agent was added to the cell plate, and incubated at room temperature for 30 minutes to stabilize the luminous signal. PerkinElmer Envision multi-label analyzer was used for reading, wherein A represents IC50≤50 nM, B represents IC50 is 50-100 nM, C represents IC50 is 100-500 nM, D represents IC50 is 500-1000 nM, […].

[4] = tested on: K562 cells; test: Cell proliferation analysis, K562; type: cell-based; settings: Homo sapiens, K562, 72 h; 3 days, CellTiter-Glo
Method: as §4, §5, §6

[5] = tested on: Ba/F3 BCR-ABL cells; test: Cell proliferation analysis, Ba/F3 BCR-ABL; type: cell-based; settings: Mus musculus, BaF3, 72 h; 3 days, CellTiter-Glo
Method: [Worded in the source for another variant; this variant is reported under the same test.] as §4, §5, §6

[6] = tested on: Ba/F3 Bcr-Abl^T315I cells; test: Cell proliferation analysis, Ba/F3 Bcr-Abl T315I; type: cell-based; settings: Mus musculus, BaF3, 72 h; 3 days, CellTiter-Glo; read-out: IC50 (nM) Ba/F3 BCR-ABL^T315
Method: as §4, §5, §6

Compound | IC50 [1] [nM] | IC50 [2] [nM] | IC50 [4] [nM] | IC50 [5] [nM] | IC50 [6] [nM] | IC50 [3] [nM]
Cc1cn(-c2cc(C(=O)Nc3ccc(C)c(C#Cc4cnc5c(Nc6cnn(C)c6)nccn45)c3)cc(C(F)(F)F)c2)cn1 [Example 4, 3-(4-methyl-1H-imidazol-1-yl)-N-(4-methyl-3-((8-((1-methyl-1H-pyrazol-4-yl)amino)imidazo[1,2-a]pyrazin-3-yl)ethynyl)phenyl)-5-(trifluoromethyl)benzamide] | 4.93 | 7.69 | 3.8 | 19.7 | 50.2 | 314
Cc1ccc(NC(=O)c2ccc(CN3CCN(C)CC3)c(C(F)(F)F)c2)cc1C#Cc1cnc2c(Nc3cnn(C)c3)nccn12 [Example 5, N-(4-methyl-3-((8-((1-methyl-1H-pyrazol-4-yl)amino)imidazo[1,2-a]pyrazin-3-yl)ethynyl)phenyl)-4-((4-methylpiperazin-1-yl)methyl)-3-(trifluoromethyl)benzamide] | 3.33 | 3.44 | 1.32 | 10.6 | 88 | 340
Cc1ccc(NC(=O)c2cc(C(C)(C)C)on2)cc1C#Cc1cnc2c(Nc3cnn(C)c3)nccn12 [Example 6, 5-(tert-butyl)-N-(4-methyl-3-((8-((1-methyl-1H-pyrazol-4-yl)amino)imidazo[1,2-a]pyrazin-3-yl)ethynyl)phenyl)isoxazole-3-carboxamide] | 1.6 | 65 | 6.56 | 9.61 | – | 5230
Cc1ccc(NC(=O)Nc2ccc(Cl)c(C(F)(F)F)c2)cc1C#Cc1cnc2c(Nc3cnn(C)c3)nccn12 [Example 7, 1-(4-chloro-3-(trifluoromethyl)phenyl)-3-(4-methyl-3-((8-((1-methyl-1H-pyrazol-4-yl)amino)imidazo[1,2-a]pyrazin-3-yl)ethynyl)phenyl)urea] | – | – | 4.53 | – | 291 | 620
COCCn1cc(Nc2nccn3c(C#Cc4cc(NC(=O)c5cc(C(C)(C)C)on5)ccc4C)cnc23)cn1 [Example 10, 5-(tert-butyl)-N-(3-((8-((1-(2-methoxyethyl)-1H-pyrazol-4-yl)amino)imidazo[1,2-a]pyrazin-3-yl)ethynyl)-4-methylphenyl)isoxazole-3-carboxamide] | 2.7 | – | 1.27 | 17.3 | 56.1 | 2680
Cc1ccc(NC(=O)Nc2ccc(Cl)c(C(F)(F)F)c2)cc1C#Cc1cnc2c(Nc3cnn(C)c3)ccnn12 [Example 16, 1-(4-chloro-3-(trifluoromethyl)phenyl)-3-(4-methyl-3-((8-((1-methyl-1H-pyrazol-4-yl)amino)imidazo[1,2-b]pyridazin-3-yl)ethynyl)phenyl)urea] | – | – | 12.1 | – | – | 1370

Now those with a lower IC50 [4], led by results:

IC50 [1] [nM] | IC50 [2] [nM] | IC50 [4] [nM] | IC50 [5] [nM] | IC50 [6] [nM] | Compound | IC50 [3] [nM]
2.55 | 6.47 | 0.96 | 6.29 | 35.8 | COCCn1cc(Nc2nccn3c(C#Cc4cc(NC(=O)c5cccc(C(F)(F)F)c5)ccc4C)cnc23)cn1 [Example 8, N-(3-((8-((1-(2-methoxyethyl)-1H-pyrazol-4-yl)amino)imidazo[1,2-a]pyrazin-3-yl)ethynyl)-4-methylphenyl)-3-(trifluoromethyl)benzamide] | 927
0.93 | 19.9 | 0.32 | 2.75 | – | COCCn1cc(Nc2nccn3c(C#Cc4cc(NC(=O)c5ccnc(C(F)(F)F)c5)ccc4C)cnc23)cn1 [Example 9, N-(3-((8-((1-(2-methoxyethyl)-1H-pyrazol-4-yl)amino)imidazo[1,2-a]pyrazin-3-yl)ethynyl)-4-methylphenyl)-2-(trifluoromethyl)isonicotinamide] | 4280
2.24 | – | 0.27 | 7.75 | – | Cc1ccc(NC(=O)c2ccnc(C(F)(F)F)c2)cc1C#Cc1cnc2c(Nc3cnn(C)c3)ccnn12 [Example 12, N-(4-methyl-3-((8-((1-methyl-1H-pyrazol-4-yl)amino)imidazo[1,2-b]pyridazin-3-yl)ethynyl)phenyl)-2-(trifluoromethyl)isonicotinamide] | 1890
